Measured values reported in patent US6903081B2, “Phosphoramidates and methods therefor” (Purdue Research Foundation, priority 2000, dated 2005).
Entries after “also recorded” stand apart in the source; their conditions may differ. Like-named read-outs stand apart in the source and are kept apart here.

Legend:
L1210 leukemia cells = experiment: Growth inhibition in L1210 mouse leukemia cells; format: cell-based
Description: In an alternate embodiment of the invention, the analogous thymidine compounds were prepared (i.e., 3 where F═CH3). The thymidine phosphoramidate was activated by reduction of the nitrofuryl group with sodium dithionite in aqueous buffer/acetonitrile at 37° C., and the reaction was monitored by ^31P nmr. Within ten minutes the resonance for the phosphoramidate anion had disappeared and a new peak corresponding to thymidine-5′-phosphate appeared as the exclusive phosphorus-containing product by ^31P nmr. Nucleoside phosphoramidate 3 was then evaluated for its ability to inhibit proliferation of L1210 leukemia cells in vitro. Cells were exposed to drug for 2, 8, 24, and 48 hours; the results are summarized below:
Stock solutions of drugs were prepared in absolute ethanol, and serial dilutions of drug were prepared in ethanol. L1210 cells were suspended in Fisher's medium supplemented with 10% horse serum, 1% glutamine, and 1% antibiotic-antimycotic solution to give 10 mL volumes of cell suspension at a final density of 3-6×10^4 cells/mL. Appropriate volumes of the drug solution were transferred to the cell suspensions, and incubation was continued for 2, 8, 24, or 48 hours. The cells were spun down, resuspended in fresh drug-free medium and returned to the incubator. Final cell counts were determined 48 hours after the start of drug treatment. The data were analyzed by sigmoidal curve fit of cell count vs. Log (drug concentration) and the results expressed as the IC50 (the drug concentration that inhibits cell growth to 50% of control value).

[1] = test system: luciferase expression in J77 cells transfected with NF-AT-Luciferase plasmid; experiment: Luciferase inhibition on transfected J77 cells; format: cell-based; details: read-out: IC50 luciferase inhibition
Description: J77 cells (2×10^7 cells in […] of FBS-free RPMI media) were transfected with […] of NF-AT-Luciferase plasmid. Cells were transferred to a flask with 10 mL of complete RPMI media and incubated for 24 hours. After this time cells were spun down, resuspended in 12 mL of complete RPMI media and divided into a 6-well well plate (2 mL/well). Drug stock solutions in DMSO were made and each well was treated with a different concentration and incubated for 2 hours. Each well was then treated with 10 mL of a mixture of 1.25 mg of PMA and 9 mg of Ionomycin in 115 mL of FBS-free RPMI, followed by the addition of 2 mg of Anti-CD3. Cells were incubated for 6 hours, spun down, washed with PBS, lysed for 15 min and centrifuged. Supernantant was collected and stored at −78° C. overnight. Luciferase activity was measured using a luminometer with a mixture of 50 mL of luciferase substrate and 10 ml of supernatant.

[2] = Chemical activation by sodium dithionite reduction monitored by 31P nmr; format: physicochemical; details: sodium dithionite in aqueous buffer/acetonitrile at 37° C.
pp60src SH2 domain = pp60src SH2 domain (Homo sapiens, UniProt P12931); experiment: Binding to pp60src SH2 domain; details: read-out: binding affinity
pp60src SH2 domain, sequence (P12931 151-248 limits assumed): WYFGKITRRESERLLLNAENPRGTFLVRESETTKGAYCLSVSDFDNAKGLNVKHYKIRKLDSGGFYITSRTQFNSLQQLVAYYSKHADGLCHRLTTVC
Source text: An alternate embodiment of the invention is illustrated in scheme 3: [drawing 3] This reaction is directed toward the synthesis of phosphoramidate 11A and involved the preparation of the nitrofuryl phosphoramidate of p-hydroxybenzoic acid 9A and coupling of this product with the benzyl amine 10A, prepared from 5-acetylsalicylamide. Briefly, to synthesize the benzoic acid derivative 9A, p-Hydroxybenzoic acid was converted to its allyl ester 6A by reaction of the potassium salt with allylbromide. The allyl ester was reacted with POCl3 and the intermediate phosphoryl dichloride was treated with methyl chlorobutylamine in the presence of triethylamine to give phosphoramidic chloride 7A. Reaction of 7A with the lithium salt of 5-nitro-2-hydroxymethylfuran afforded the phosphoramidate 8A. Deprotection of the allyl ester was accomplished by reaction with Pd(Ph3P)4/sodium p-toluenesulfinate to give the benzoic acid phosphoramidate 9A. Reaction of 9A with isobutyl chloroformate in the presence of triethylamine, followed by addition of benzylamine 10A afforded the desired peptidomimetic prodrug 11A. In order to confirm that the activation chemistry of 11A to 12A would proceed as expected, 11A was reduced with sodium dithionite in ethanol/aqueous buffer and the reaction monitored by ^31P nmr. […]

L1210 cells = experiment: Tritium assay in L1210 cells; format: cell-based; details: Mus musculus
Description: (§1) Stock solutions of drugs were prepared in absolute ethanol. L1210 cells were suspended in fisher's medium, LM and LM (TK-) cells were suspended in minimum essential medium to give a final density of 11.24×10^6 cells/mL. Aliquots ([…]) of the cell suspension were placed in ependorf tubes, followed by addition of 5 mL of drug solution and incubated at 37° C. for 2 hours. Tritium release reaction was started by the addition of […] of serum free media containing 1 mCi [5-^3H]dCyt in a 0.5 mM dCyt solution. Allowed reaction to incubate for 60 min in a shaking water bath at 37° C. Reaction was terminated by transferring 100 mL of the reaction mixture to ependorf tubes containing 100 mL of a 20% mixture of activated charcoal suspension in 4% aqueous perchloric acid. Tubes were vigorously vortexed, then centrifuged in a microfuge. Radioactivity of […] of the supernatant was measured using a scintillation spectrometer. The data were analyzed by sigmoidal curve fit of CMP vs. Log (drug concentration) and the results expressed as the IC50 (the drug concentration that inhibits cell growth to 50% of control value).

LM(TK-) cells = experiment: Tritium assay in LM(TK-) cells; format: cell-based; details: L-M(TK-), read-out: IC50 tritium assay
Description: as §1

LM cells = experiment: Tritium assay in LM cells; format: cell-based; details: read-out: IC50 tritium assay
Description: as §1

[3] = Mus musculus, L1210, 48 h, drug exposure 48 h, final cell counts 48 hours after start of drug treatment
[4] = Mus musculus, L1210, drug exposure 2 h, final cell counts 48 hours after start of drug treatment
[5] = Mus musculus, L1210, drug exposure 8 h, final cell counts 48 hours after start of drug treatment
[6] = Mus musculus, L1210, drug exposure 24 h, final cell counts 48 hours after start of drug treatment
[7] = Mus musculus, L1210, 2 h, read-out: L1210 IC50, drug exposure 2 hr, comparison of compound 5 with compound 3
[8] = Mus musculus, L1210, 8 h, read-out: L1210 IC50, drug exposure 8 hr, comparison of compound 5 with compound 3
[9] = Mus musculus, L1210, 24 h, read-out: L1210 IC50, drug exposure 24 hr, comparison of compound 5 with compound 3
[10] = Mus musculus, L1210, 48 h, read-out: L1210 IC50, drug exposure 48 hr, comparison of compound 5 with compound 3

Compound: COC1=CC(=O)c2c(cc(COP(=O)(OCC3OC(n4cc(F)c(=O)[nH]c4=O)CC3O)N(C)CCCCCl)n2C)C1=O (centres unmarked) [Compound 6, 5-Fluoro-2′-deoxyuridyl 2-(5-methoxy-N-methylindoloquinone)methyl N-methyl-N-(4-chlorobutyl)phosphoramidate]
- IC50 (L1210 leukemia cells; [3]): 1.6 nM
- IC50 (L1210 leukemia cells; [4]): 34 nM
- IC50 (L1210 leukemia cells; [5]): 48 nM
- IC50 (L1210 leukemia cells; [6]): 4.8 nM

Compound: CC(NC(=O)c1ccc(OP(=O)(OCc2ccc([N+](=O)[O-])o2)N(C)CCCCCl)cc1)c1ccc(OCC2CCCCC2)c(C(N)=O)c1 (centres unmarked) [Compound 35]
- IC50 [1]: 34100 nM

Compound: CC(NC(=O)c1ccc(OP(=O)(OCC2=CC(=O)c3ccccc3C2=O)N(C)CCCCCl)cc1)c1ccc(OCC2CCCCC2)c(C(N)=O)c1 (centres unmarked) [Compound 37]
- IC50 [1]: 4200 nM

Compound: Cc1cn([C@H]2C[C@H](O)[C@@H](COP(N)(=O)O)O2)c(=O)[nH]c1=O [thymidine phosphoramidate]
- time until the phosphoramidate anion resonance had disappeared (thymidine-5′-phosphate exclusive product) [2]: ten

Compound: CC(NC(=O)Cc1ccc(OP(=O)(OCc2ccc([N+](=O)[O-])o2)N(C)CCCCCl)cc1)c1ccc(OCC2CCCCC2)c(C(N)=O)c1 (centres unmarked) [Compound 40]
- IC50 [1]: 3400 nM

Compound: O=c1[nH]cc(F)c(=O)[nH]1 [Compound 5-FU, reference compound]
- IC50 (L1210 leukemia cells; drug exposure 2 h, final cell counts 48 hours after start of drug treatment, read-out: IC50): 2500 nM
- IC50 (L1210 leukemia cells; drug exposure 2 hr, comparison of compound 5 with compound 3, read-out: L1210 IC50): 2500 nM
- IC50 (L1210 leukemia cells; drug exposure 2 hr, read-out: L1210 IC50): 2740 nM
- IC50 (L1210 leukemia cells; drug exposure 8 h, final cell counts 48 hours after start of drug treatment, read-out: IC50): 1010 nM
- IC50 (L1210 leukemia cells; drug exposure 8 hr, comparison of compound 5 with compound 3, read-out: L1210 IC50): 1010 nM
- IC50 (L1210 leukemia cells; drug exposure 8 hr, read-out: L1210 IC50): 1390 nM
- IC50 (L1210 leukemia cells; drug exposure 24 h, final cell counts 48 hours after start of drug treatment, read-out: IC50): 360 nM
- IC50 (L1210 leukemia cells; drug exposure 24 hr, comparison of compound 5 with compound 3, read-out: L1210 IC50): 360 nM
- IC50 (L1210 leukemia cells; drug exposure 24 hr, read-out: L1210 IC50): 495 nM
- IC50 (L1210 leukemia cells; drug exposure 48 h, final cell counts 48 hours after start of drug treatment, read-out: IC50): 200 nM
- IC50 (L1210 leukemia cells; drug exposure 48 hr, comparison of compound 5 with compound 3, read-out: L1210 IC50): 200 nM
- IC50 (L1210 leukemia cells; drug exposure 48 hr, read-out: L1210 IC50): 265 nM

Compound: CC(NC(=O)c1ccc(OP(=O)(O)O)cc1)c1ccc(OCC2CCCCC2)c(C(N)=O)c1 (centres unmarked) [Compound 12A]
- Kd (pp60src SH2 domain): 5600 nM

Compound: CN(CCCCCl)P(=O)(OCC1=CC(=O)c2ccccc2C1=O)OC[C@H]1O[C@@H](n2cc(F)c(=O)[nH]c2=O)CC1O (some centres unmarked) [Compound 5, 5-Fluoro-2′-deoxyuridyl 2-(1,4-napthoquinonyl)methyl N-methyl-N-(4-chlorobutyl)phosphoramidate]
- inhibition of L1210 cell proliferation, in words (L1210 leukemia cells): highly potent inhibitors
- potency relative to compound 3 (L1210 leukemia cells; L1210 cell proliferation): approximately 3 fold
- IC50 (L1210 leukemia cells; [7]): 44 nM
- IC50 (L1210 leukemia cells; [8]): 16 nM
- IC50 (L1210 leukemia cells; [9]): 3.1 nM
- IC50 (L1210 leukemia cells; [3]): 0.63 nM
- IC50 (L1210 leukemia cells; [10]): 0.63 nM
- IC50 (L1210 leukemia cells; [4]): 44 nM
- IC50 (L1210 leukemia cells; [5]): 16 nM
- IC50 (L1210 leukemia cells; [6]): 3.1 nM

Compound: CN(CCCCCl)P(=O)(OCc1ccc([N+](=O)[O-])o1)OC[C@H]1O[C@@H](n2cc(F)c(=O)[nH]c2=O)CC1O (some centres unmarked) [Compound 3, 5-Fluoro-2′-deoxyuridyl 5-nitrofurfuryl N-methyl-N-(4-chlorobutyl)phosphoramidate]
- IC50 (L1210 cells; L1210, read-out: IC50 tritium assay): 46 nM
- inhibition of L1210 cell proliferation, in words (L1210 leukemia cells): significantly more potent than the analogous bromoethyl compound; also recorded: highly potent inhibitors
- IC50 (L1210 leukemia cells; Mus musculus, L1210, 2 h, read-out: L1210 IC50, drug exposure 2 hr): 112 nM
- IC50 (L1210 leukemia cells; [7]): 116 nM
- IC50 (L1210 leukemia cells; Mus musculus, L1210, 8 h, read-out: L1210 IC50, drug exposure 8 hr): 40 nM
- IC50 (L1210 leukemia cells; [8]): 47 nM
- IC50 (L1210 leukemia cells; Mus musculus, L1210, 24 h, read-out: L1210 IC50, drug exposure 24 hr): 6 nM
- IC50 (L1210 leukemia cells; [9]): 7.2 nM
- IC50 (L1210 leukemia cells; [3]): 2.3 nM
- IC50 (L1210 leukemia cells; Mus musculus, L1210, 48 h, read-out: L1210 IC50, drug exposure 48 hr): 2 nM
- IC50 (L1210 leukemia cells; [10]): 2.3 nM
- IC50 (L1210 leukemia cells; [4]): 116 nM
- IC50 (L1210 leukemia cells; [5]): 47 nM
- IC50 (L1210 leukemia cells; [6]): 7.2 nM
- IC50 (LM(TK-) cells): 1280 nM
- IC50 (LM cells): 711 nM

Compound: CC(=O)NC(Cc1ccc(OP(=O)(OCc2ccc([N+](=O)[O-])o2)N(C)CCCCCl)cc1)C(=O)NC(C)c1ccc(OCC2CCCCC2)c(C(N)=O)c1 (centres unmarked) [Compound 38]
- IC50 [1]: 5600 nM

Compound: O=c1[nH]c(=O)n([C@H]2C[C@H](O)[C@@H](CO)O2)cc1F [FUdR, 5-Fluoro-2′-deoxyuridine, reference compound]
- IC50 (L1210 cells; L1210, drug 2 hours at 37° C., then [5-3H]dCyt 60 min, read-out: IC50 tritium assay): 8 nM
- IC50 (L1210 leukemia cells; Mus musculus, L1210, 48 h, drug exposure 48 h, final cell counts 48 hours after start of drug treatment, read-out: IC50): 0.64 nM
- IC50 (L1210 leukemia cells; Mus musculus, L1210, drug exposure 2 h, final cell counts 48 hours after start of drug treatment, read-out: IC50): 45 nM
- IC50 (L1210 leukemia cells; Mus musculus, L1210, drug exposure 8 h, final cell counts 48 hours after start of drug treatment, read-out: IC50): 23 nM
- IC50 (L1210 leukemia cells; Mus musculus, L1210, drug exposure 24 h, final cell counts 48 hours after start of drug treatment, read-out: IC50): 4.1 nM
- IC50 (LM(TK-) cells; LM(TK-), drug 2 hours at 37° C., then [5-3H]dCyt 60 min): 3670 nM
- IC50 (LM cells; LM, drug 2 hours at 37° C., then [5-3H]dCyt 60 min): 59 nM

Compound: CC(NC(=O)c1ccc(NP(=O)(OCc2ccc([N+](=O)[O-])o2)N(C)CCCCCl)cc1)c1ccc(OCC2CCCCC2)c(C(N)=O)c1 (centres unmarked) [Compound 42]
- IC50 ([1]; transfected J77 cells, drug 2 hours, then PMA/Ionomycin/Anti-CD3 for 6 hours): 15000 nM
